The values below come from US5734013A, “Peptides having farnesyl transferase inhibiting properties and strain of genus streptomyces for producing same” (Rhone-Poulenc Rorer S.A., priority 1994, dated 1998).

Broadly, the IC50 is the concentration needed to halve the response being measured. A lower IC50 goes with greater potency.

Starred links: 1 amine or outer side, 2 acyl side, 3 side chain; linkers in the order of their positions; H or OH if unused. Positions of bridges follow the written chain, without caps; N, C: chain ends. Non-standard residues stand in square brackets, D forms with d. Residues, ends and D or L forms follow the SMILES beside them. *: point of attachment. Trp(5-OH) = N[CH](Cc1c[nH]c2ccc(O)cc12)C(=O)O; Propanoyl(3-cHex) = O=C(CCC1CCCCC1)*; Hpg = N[CH](C(=O)O)c1ccc(O)cc1; NMeF = CN[CH](Cc1ccccc1)C(=O)O; X1 = CC1CC1(N[*:1])C(=O)[*:2]; Ac3c = NC1(C(=O)O)CC1

This assay concerns the target T1, farnesyl transferase (Ftase) (Homo sapiens, UniProt P49354+P49356).
T1 construct: This enzyme was partially purified from human THP1 cells; endogenous in cells; host or cells: human THP1 cells (enzyme partially purified)
The assay can be described thus: Scintillation proximity assay (SPA) test for farnesyl transferase inhibition. In kind it is biochemical. Particulars: Ftase partially purified from human THP1 cells; biotinylated B lamin peptide (BLB) 0.1 μM, 3HFPP 0.12 μM; 37° C., 60 minutes. Background: SPA uses beads or plates that emit light when radiolabelled molecules are held near them.
Experimental: The principle of SPA (scintillation proximity assay) technology is applied to assaying the enzymic activity of farnesyl transferase. According to this method, farnesyl transferase inhibitory activity is determined by the quantity of (^3 H)-farnesyl which is transferred from (^3 H)-farnesyl pyrophosphate ((^3 H) FPP) to a biotinylated acceptor substrate.
The acceptor substrate, which is biotinylated, is a peptide of 11 amino acids corresponding to the terminal sequence of B lamin (BLB). The donor substrate, farnesyl pyrophosphate, is labelled with tritrium (^3 HFPP). […] The radio-labelled peptide excites the beads, which then emit light which is quantified in a solid-liquid scintillation counter (Topcount®, Packard).
The SPA reaction is started by adding 40 μl of Ftase (2 μg) to a microtitre plate which contains 20 μl of BLB (0.1 μM), 20 μl of ^3 HFPP (0.12 μM) and 20 μl of assay buffer 50 mM Hepes, pH 7.5, 5 mM MgCl2, 5 mM DTT, 20 mM KCl, 0.01% triton X100 (control) or 20 μl of sample diluted in assay buffer (screening). The plate is incubated at 37° C. for 60 minutes and the reaction is stopped by adding 150 μl of stopping reagent containing the SPA beads. The plate is sealed with an adhesive film, left at ambient temperature for 30 minutes in order to reach equilibrium, and then counted in the Topcount counter. […] The IC50 values of the compounds are calculated by non-linear regression.
As for `CC1OC(=O)C2(CC2)NC(=O)C(c2ccc(O)cc2)NC(=O)C(Cc2c[nH]c3ccc(O)cc23)NC(=O)C(CCC(=O)O)NC(=O)C(Cc2ccccc2)N(C)C(=O)C1NC(=O)CCC1CCCCC1` (stereo not drawn) [Peptide 1] ({Propanoyl(3-cHex)}-T[NMeF]E[Trp(5-OH)][Hpg][Ac3c]; ester 1-C; configuration not given here), the IC50 stood at 626 nM. To `CC1OC(=O)C2(CC2C)NC(=O)C(c2ccc(O)cc2)NC(=O)C(Cc2c[nH]c3ccc(O)cc23)NC(=O)C(CCC(=O)O)NC(=O)C(Cc2ccccc2)N(C)C(=O)C1NC(=O)CCC1CCCCC1` (stereo not drawn) [Peptide 2] ({Propanoyl(3-cHex)}-T[NMeF]E[Trp(5-OH)][Hpg][X1]; ester 1-C; configuration not given here) belongs 538 nM; to `COC(=O)CCC1NC(=O)C(Cc2ccccc2)N(C)C(=O)C(NC(=O)CCC2CCCCC2)C(C)OC(=O)C2(CC2C)NC(=O)C(c2ccc(O)cc2)NC(=O)C(Cc2c[nH]c3ccc(O)cc23)NC1=O` (stereo not drawn) [Peptide 3] ({Propanoyl(3-cHex)}-T[NMeF]E(OMe)[Trp(5-OH)][Hpg][X1]; ester 1-C; configuration not given here), 1300 nM.
